Measured values taken from patent publication US12492173B2, “Herbicidal substituted N-tetrazolyl aryl carboxamides” (Bayer Aktiengesellschaft, priority 2019, dated 2025).

Key:
Type in all cases: in vivo
[1] = tested on: Stellaria media; assay: Post-emergence herbicidal action, STEME; parameters: key: % herbicidal action vs untreated; 100 = plants died, 0 = like control; settings: for herbicidal action STEME: Dosage 80 g/ha; for Herbicidal action against STEME: post-emergence, dosage 80 g/ha
Procedure, shortened: (§1)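 Greenhouse post-emergence test: weeds sown in sandy loam were sprayed once at one leaf, 2 to 3 weeks from sowing, with aqueous WP or EC preparations carrying 0.2% wetting agent. Effect is scored visually after about 3 weeks.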

[2] = tested on: Matricaria inodora; assay: Pre-emergence herbicidal action, MATIN; settings: dosage 320 g/ha
Procedure, shortened: (§2)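 Sown pots (sandy loam) sprayed pre-emergence → greenhouse → visual rating at 3 weeks; % activity vs untreated control, 100% = dead.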

[3] = tested on: Amaranthus retroflexus; assay: Pre-emergence herbicidal action, AMARE; settings: dosage 320 g/ha
Procedure, shortened: as §2

[4] = tested on: Veronica persica; assay: Pre-emergence herbicidal action, VERPE; settings: dosage 320 g/ha
Procedure, shortened: as §2

[5] = tested on: Setaria viridis; assay: Post-emergence herbicidal action, SETVI; parameters: key: % herbicidal action vs untreated; 100 = plants died, 0 = like control; settings: Dosage 80 g/ha
Procedure, shortened: as §1

[6] = tested on: Echinochloa crus-galli; assay: Post-emergence herbicidal action, ECHCG; parameters: key: % herbicidal action vs untreated; 100 = plants died, 0 = like control; settings: for herbicidal action ECHCG: Dosage 80 g/ha; for Herbicidal action against ECHCG: post-emergence, dosage 80 g/ha
Procedure, shortened: as §1

[7] = tested on: Pharbitis purpurea; assay: Post-emergence herbicidal action, PHBPU; settings: for herbicidal action PHBPU: Dosage 80 g/ha; for Herbicidal action against PHBPU: post-emergence, dosage 80 g/ha
Procedure, shortened: as §1

[8] = tested on: Amaranthus retroflexus; assay: Post-emergence herbicidal action, AMARE; parameters: key: % herbicidal action vs untreated; 100 = plants died, 0 = like control; settings: for herbicidal action AMARE: Dosage 80 g/ha; for Herbicidal action against AMARE: post-emergence, dosage 80 g/ha
Procedure, shortened: as §1

[9] = tested on: Viola tricolor; assay: Post-emergence herbicidal action, VIOTR; parameters: key: % herbicidal action vs untreated; 100 = plants died, 0 = like control; settings: for herbicidal action VIOTR: Dosage 80 g/ha; for Herbicidal action against VIOTR: post-emergence, dosage 80 g/ha
Procedure, shortened: as §1

[10] = tested on: Veronica persica; assay: Post-emergence herbicidal action, VERPE; parameters: key: % herbicidal action vs untreated; 100 = plants died, 0 = like control; settings: for herbicidal action VERPE: Dosage 80 g/ha
Procedure, shortened: as §1

[11] = tested on: Matricaria inodora; assay: Post-emergence herbicidal action, MATIN; parameters: key: % herbicidal action vs untreated; 100 = plants died, 0 = like control; settings: for herbicidal action MATIN: Dosage 80 g/ha
Procedure, shortened: as §1

[12] = tested on: Abutilon theophrasti; assay: Post-emergence herbicidal action, ABUTH; parameters: key: % herbicidal action vs untreated; 100 = plants died, 0 = like control; settings: for herbicidal action ABUTH: Dosage 80 g/ha
Procedure, shortened: as §1

[13] = tested on: Cyperus esculentus; assay: Post-emergence herbicidal action, CYPES; parameters: key: % herbicidal action vs untreated; 100 = plants died, 0 = like control; settings: Dosage 80 g/ha
Description: (§3) [table] 2. Post-Emergence Herbicidal Action Against Harmful Plants Seeds of monocotyledonous and dicotyledonous weed and crop plants are laid out in sandy loam soil in wood-fiber pots, covered with soil and cultivated in a greenhouse under good growth conditions. 2 to 3 weeks after sowing, the test plants are treated at the one-leaf stage. The compounds of the invention, formulated in the form of wettable powders (WP) or as emulsion concentrates (EC), are then sprayed onto the green parts of the plants in the form of an aqueous suspension or emulsion at a water application rate equating to 600 to 800 l/ha, with addition of 0.2% wetting agent. After the test plants have been left to stand in the greenhouse under optimal growth conditions for about 3 weeks, the action of the preparations is assessed visually in comparison to untreated controls (herbicidal action in percent (%): 100% activity=the plants have died, 0% activity=like control plants). […] The tables below illustrate, in an exemplary manner, the post-emergence herbicidal action of the compounds according to the invention, the herbicidal activity being stated in percent. In the experiments that follow, herbicidal action of numerous inventive compounds and the known compounds that are structurally closest from D1 (WO 2012/028579 A1) and D2 (WO 2018/202535 A1) were compared under the above-specified conditions by the pre-emergence and post-emergence method. The example numbers given in the tables relate to the compounds disclosed in the respective documents. In addition to the compounds disclosed in D1 and D2, the following compounds V-1 to V-14 that are encompassed by D1 or D2 but are not compounds specified therein were used in the comparative experiments: • V-1: 2-(methylsulfanyl)-3-(methylsulfinyl)-N-(1-methyl-1H-tetrazol-5-yl)-4-(trifluoromethyl)benzamide • V-2: 2-(methylsulfanyl)-3-(methylsulfonyl)-N-(1-methyl-1H-tetrazol-5-yl)-4-(trifluoromethyl)benzamide • V-3: 2,3-bis(ethylsulfanyl)-N-(1-methyl-1H-tetrazol-5-yl)-4-(trifluoromethyl)benzamide • V-4: 2-chloro-3-(ethylsulfanyl)-N-(1-methyl-1H-tetrazol-5-yl)-4-(trifluoromethyl)benzamide • V-5: 2-chloro-4-iodo-3-(methylsulfanyl)-N-(1-methyl-1H-tetrazol-5-yl)benzamide • V-6: 2-chloro-4-iodo-3-(methylsulfinyl)-N-(1-methyl-1H-tetrazol-5-yl)benzamide • V-7: 2-chloro-4-iodo-3-(methylsulfonyl)-N-(1-methyl-1H-tetrazol-5-yl)benzamide • V-8: 2-bromo-3-(methylsulfanyl)-N-(1-methyl-1H-tetrazol-5-yl)-4-(trifluoromethyl)benzamide • V-9: 2-bromo-3-(methylsulfinyl)-N-(1-methyl-1H-tetrazol-5-yl)-4-(trifluoromethyl)benzamide • V-10: 2-bromo-3-(methylsulfonyl)-N-(1-methyl-1H-tetrazol-5-yl)-4-(trifluoromethyl)benzamide • V-11: 2-bromo-3-(ethylsulfanyl)-N-(1-methyl-1H-tetrazol-5-yl)-4-(trifluoromethyl)benzamide • V-12: 2-bromo-3-(ethylsulfinyl)-N-(1-methyl-1H-tetrazol-5-yl)-4-(trifluoromethyl)benzamide • V-13: 2-bromo-3-(ethylsulfonyl)-N-(1-methyl-1-1H-tetrazol-5-yl)-4-(trifluoromethyl)benzamide • V-14: 2-cyclopropyl-3-(ethylsulfanyl)-N-(1-methyl-1H-tetrazol-5-yl)-4-(trifluoromethyl)benzamide Herbicidal Pre-Emergence Action: […]

[14] = tested on: Viola tricolor; assay: Pre-emergence herbicidal action, VIOTR; settings: dosage 320 g/ha
Procedure, shortened: as §2

[15] = tested on: Stellaria media; assay: Pre-emergence herbicidal action, STEME; settings: dosage 320 g/ha
Procedure, shortened: as §2

[16] = tested on: Echinochloa crus-galli; assay: Pre-emergence herbicidal action, ECHCG; settings: dosage 320 g/ha
Procedure, shortened: as §2

[17] = tested on: Pharbitis purpurea; assay: Pre-emergence herbicidal action, PHBPU
Source text: (§4) 1. Pre-Emergence Herbicidal Action Against Harmful Plants Seeds of monocotyledonous and dicotyledonous weed plants and crop plants are laid out in sandy loam soil in wood-fiber pots and covered with soil. The compounds of the invention, formulated in the form of wettable powders (WP) or as emulsion concentrates (EC), are then applied to the surface of the covering soil in the form of an aqueous suspension or emulsion at a water application rate equating to 600 to 800 l/ha, with addition of 0.2% wetting agent. After the treatment, the pots are placed in a greenhouse and kept under good growth conditions for the trial plants. The damage to the test plants is scored visually after a test period of 3 weeks by comparison with untreated controls (herbicidal activity in percent (%): 100% activity=the plants have died, 0% activity=like control plants). […] The tables below illustrate, in an exemplary manner, the […] herbicidal action of the compounds according to the invention, the herbicidal activity being stated in percent. [table] In the experiments that follow, herbicidal action of numerous inventive compounds and the known compounds that are structurally closest from D1 (WO 2012/028579 A1) and D2 (WO 2018/202535 A1) were compared under the above-specified conditions by the pre-emergence and post-emergence method. The example numbers given in the tables relate to the compounds disclosed in the respective documents. In addition to the compounds disclosed in D1 and D2, the following compounds V-1 to V-14 that are encompassed by D1 or D2 but are not compounds specified therein were used in the comparative experiments: • V-1: 2-(methylsulfanyl)-3-(methylsulfinyl)-N-(1-methyl-1H-tetrazol-5-yl)-4-(trifluoromethyl)benzamide • V-2: 2-(methylsulfanyl)-3-(methylsulfonyl)-N-(1-methyl-1H-tetrazol-5-yl)-4-(trifluoromethyl)benzamide • V-3: 2,3-bis(ethylsulfanyl)-N-(1-methyl-1H-tetrazol-5-yl)-4-(trifluoromethyl)benzamide • V-4: 2-chloro-3-(ethylsulfanyl)-N-(1-methyl-1H-tetrazol-5-yl)-4-(trifluoromethyl)benzamide • V-5: 2-chloro-4-iodo-3-(methylsulfanyl)-N-(1-methyl-1H-tetrazol-5-yl)benzamide • V-6: 2-chloro-4-iodo-3-(methylsulfinyl)-N-(1-methyl-1H-tetrazol-5-yl)benzamide • V-7: 2-chloro-4-iodo-3-(methylsulfonyl)-N-(1-methyl-1H-tetrazol-5-yl)benzamide • V-8: 2-bromo-3-(methylsulfanyl)-N-(1-methyl-1H-tetrazol-5-yl)-4-(trifluoromethyl)benzamide • V-9: 2-bromo-3-(methylsulfinyl)-N-(1-methyl-1H-tetrazol-5-yl)-4-(trifluoromethyl)benzamide • V-10: 2-bromo-3-(methylsulfonyl)-N-(1-methyl-1H-tetrazol-5-yl)-4-(trifluoromethyl)benzamide • V-11: 2-bromo-3-(ethylsulfanyl)-N-(1-methyl-1H-tetrazol-5-yl)-4-(trifluoromethyl)benzamide • V-12: 2-bromo-3-(ethylsulfinyl)-N-(1-methyl-1H-tetrazol-5-yl)-4-(trifluoromethyl)benzamide • V-13: 2-bromo-3-(ethylsulfonyl)-N-(1-methyl-1-1H-tetrazol-5-yl)-4-(trifluoromethyl)benzamide • V-14: 2-cyclopropyl-3-(ethylsulfanyl)-N-(1-methyl-1H-tetrazol-5-yl)-4-(trifluoromethyl)benzamide Herbicidal Pre-Emergence Action: […]

[18] = tested on: Polygonum convolvulus; assay: Pre-emergence herbicidal action, POLCO; settings: dosage 320 g/ha, scored visually after 3 weeks vs untreated controls (100% = plants have died)
Source text: as §4

[19] = tested on: Setaria viridis; assay: Pre-emergence herbicidal action, SETVI; settings: dosage 320 g/ha, scored visually after 3 weeks vs untreated controls (100% = plants have died)
Source text: as §4

[20] = tested on: Abutilon theophrasti; assay: Pre-emergence herbicidal action, ABUTH; settings: dosage 320 g/ha
Procedure, shortened: as §2

[21] = tested on: Alopecurus myosuroides; assay: Post-emergence herbicidal action, ALOMY; parameters: key: % herbicidal action vs untreated; 100 = plants died, 0 = like control; settings: Dosage 80 g/ha
Description: as §3

[22] = tested on: Polygonum convolvulus; assay: Post-emergence herbicidal action, POLCO; settings: Dosage 80 g/ha
Description: as §3

[23] = scored visually after 3 weeks vs untreated controls (100% = plants have died)

Row | SMILES | herbicidal action STEME [1] | herbicidal action MATIN [2] [%] | herbicidal action AMARE [3] [%] | herbicidal action VERPE [4] [%] | herbicidal action SETVI [5] | herbicidal action ECHCG [6] | herbicidal action PHBPU [7] | herbicidal action AMARE [8] | herbicidal action VIOTR [9] | herbicidal action VERPE [10] | herbicidal action MATIN [11] | herbicidal action ABUTH [12] | herbicidal action CYPES [13] | Herbicidal action against STEME [1] | Herbicidal action against ECHCG [6] | Herbicidal action against PHBPU [7] | Herbicidal action against AMARE [8] | Herbicidal action against VIOTR [9] | herbicidal action STEME [15] [%] | herbicidal action ECHCG [16] [%] | also measured
1 | Cc1c(C(=O)Nc2nnnn2C)ccc(S(C)(=O)=O)c1CS(C)(=O)=O [Example 1-39] | 80 | 100 | 100 | 90 | 90 | 80 | 80 | 90 | 90 | 90 | 90 | 90 | 80 |  |  |  |  |  |  |  | 
2 | Cn1nnnc1NC(=O)c1ccc(S(C)(=O)=O)c(CS(C)(=O)=O)c1Cl [Example 1-280] |  |  |  |  |  |  |  |  |  |  |  |  |  | 100 | 90 | 90 | 90 | 90 |  |  | herbicidal activity VIOTR [14, 23]: 90%; herbicidal activity MATIN [2, 23]: 90%; herbicidal activity AMARE [3, 23]: 100%; herbicidal activity VERPE [4, 23]: 100%; herbicidal activity STEME [15, 23]: 90%; herbicidal activity ECHCG [16, 23]: 100%; herbicidal activity PHBPU ([17]; dosage 320 g/ha, scored visually after 3 weeks vs untreated controls (100% = plants have died)): 80%; herbicidal activity POLCO [18]: 80%; herbicidal activity SETVI [19]: 80%; herbicidal activity ABUTH [20, 23]: 90%
3 | CCSCc1c(C(F)(F)F)ccc(C(=O)Nc2nnnn2C)c1C1CC1 [Example 1-517] |  |  |  |  |  |  |  |  |  |  |  |  |  |  |  |  |  |  |  |  | Herbicidal action against PHBPU ([17]; comparative experiment, 20 g of a.i./ha): 60
4 | CCn1nnnc1NC(=O)c1ccc(S(C)(=O)=O)c(CSC)c1C [Example 2-37] | 100 |  | 100 | 100 | 100 | 100 | 80 | 90 | 100 | 100 | 80 | 80 | 80 |  |  |  |  |  | 90 | 90 | herbicidal action ALOMY [21]: 80
5 | CCn1nnnc1NC(=O)c1ccc(C)c(C[S+](C)[O-])c1Cl (stereo not drawn) [Example 2-288] | 100 | 90 | 100 | 100 | 90 | 90 | 90 | 100 | 80 | 100 | 90 | 90 |  |  |  |  |  |  | 90 | 100 | herbicidal action POLCO [22]: 90; herbicidal action ALOMY [21]: 80
6 | CCCn1nnnc1NC(=O)c1ccc(C(F)(F)F)c(CS(C)(=O)=O)c1S(C)(=O)=O [Example 3-199] |  | 100 | 90 | 100 |  |  |  |  |  |  |  |  |  | 80 | 80 | 90 | 80 | 90 | 80 |  | herbicidal action VIOTR [14]: 100%; herbicidal action PHBPU ([17]; dosage 320 g/ha): 80%; Herbicidal action against VERPE ([10]; post-emergence, dosage 80 g/ha): 100; Herbicidal action against MATIN ([11]; post-emergence, dosage 80 g/ha): 80; herbicidal action ABUTH [20]: 100%; Herbicidal action against ABUTH ([12]; post-emergence, dosage 80 g/ha): 90
